Data set [1] has as its system RSV (RSV A2 ECACC, 0709161v). Briefly: RSV plaque reduction assay. The class given is cell-based, respiratory syncytial virus. Particulars: human respiratory syncytial virus, HepG2, read-out: RSV A2 Plaque EC50, RSV A2 in Hep-G2 cells; mean of at least two experiments unless noted (n = 1). The procedure, abridged:
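Eight-point compound dilutions were premixed with RSV A2 (100 PFU/well) and applied to confluent Hep-G2 cells for 2 h, followed by a 2-day incubation at 37° C. under compound-containing 0.8% CMC overlay. EC50 comes from immunostained plaque counts relative to untreated virus wells, averaged over ≥2 runs.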

A short description of data set [2]: cell toxicity CC50. Particulars: human; Hep-G2 cells; mean of at least two experiments; read-out: Cell Cytotoxicity CC50. The class given is cell-based.

`C[C@H]1CCn2nc(-c3ccncc3F)c(C(=O)N[C@H]3N=C(c4ccccc4)c4cccc(F)c4NC3=O)c2O1` [Example 76, (5S)-N-[(3S)-9-fluoro-2-oxo-5-phenyl-1,3-dihydro-1,4-benzodiazepin-3-yl]-2-(3-fluoropyridin-4-yl)-5-methyl-6,7-dihydro-5H-pyrazolo[5,1-b][1,3]oxazine-3-carboxamide]: the concentration for a half-maximal effect (EC50) in data set [1] stood at 93 nM. In addition, the cytotoxic concentration (CC50) in data set [2] is more than 25000 nM.

Take `Cc1ccc(-c2nn3c(c2C(=O)N[C@H]2N=C(c4ccccc4)c4cccc(F)c4NC2=O)O[C@H](C)CC3)cn1` [Example 77, (5R)-5-Methyl-2-(6-methylpyridin-3-yl)-N-[(3S)-9-fluoro-2-oxo-5-phenyl-1,3-dihydro-1,4-benzodiazepin-3-yl]-6,7-dihydro-5H-pyrazolo[5,1-b][1,3]oxazine-3-carboxamide]: the EC50 in data set [1] amounted to 159 nM. In data set [2], the CC50 is more than 25000 nM.

For `CC(O)Cc1ccc(-c2nn3c(c2C(=O)N[C@H]2N=C(c4ccccc4)c4cccc(F)c4NC2=O)O[C@H](C)CC3)cn1` (stereo partly drawn) [Example 78, (5R)-2-[6-(2-Hydroxypropyl)pyridin-3-yl]-5-methyl-N-[(3S)-9-fluoro-2-oxo-5-phenyl-1,3-dihydro-1,4-benzodiazepin-3-yl]-6,7-dihydro-5H-pyrazolo[5,1-b][1,3]oxazine-3-carboxamide], the EC50 in data set [1] came to 217 nM. Also, the CC50 in data set [2] was more than 25000 nM.

Take `Cc1cc(-c2nn3c(c2C(=O)N[C@H]2N=C(c4ccccc4)c4cccc(F)c4NC2=O)O[C@H](C)CC3)c(F)cn1` [Example 79, (5R)-2-(5-Fluoro-2-methylpyridin-4-yl)-N-[(3S)-9-fluoro-2-oxo-5-phenyl-1,3-dihydro-1,4-benzodiazepin-3-yl]-5-methyl-6,7-dihydro-5H-pyrazolo[5,1-b][1,3]oxazine-3-carboxamide]: the EC50 in data set [1] was determined as 115 nM. The CC50 in data set [2] was more than 25000 nM.

As to `O=C(N[C@H]1N=C(c2ccccc2)c2cccc(F)c2NC1=O)c1c(-c2ccncc2F)nn2c1OCCC2` [Example 80, N-[(3S)-9-fluoro-2-oxo-5-phenyl-1,3-dihydro-1,4-benzodiazepin-3-yl]-2-(3-fluoropyridin-4-yl)-6,7-dihydro-5H-pyrazolo[5,1-b][1,3]oxazine-3-carboxamide], the EC50 in data set [1] turned out to be 64 nM. In addition, in data set [2], the CC50 is more than 25000 nM.

With `C[C@@H]1CCn2nc(-c3ccccc3)c(C(=O)N[C@H]3N=C(c4ccccc4)c4cccc(F)c4NC3=O)c2O1` [Example 81, (5R)-5-Methyl-2-phenyl-N-[(3S)-9-fluoro-2-oxo-5-phenyl-1,3-dihydro-1,4-benzodiazepin-3-yl]-6,7-dihydro-5H-pyrazolo[5,1-b][1,3]oxazine-3-carboxamide], the EC50 in data set [1] amounted to 84 nM. In data set [2], the CC50 was more than 25000 nM.

As to `C[C@@H]1CCn2nc(-c3ccc(F)cc3F)c(C(=O)N[C@H]3N=C(c4ccccc4)c4cccc(F)c4NC3=O)c2O1` [Example 82, (5R)-2-(2,4-Difluorophenyl)-5-methyl-N-[(3S)-9-fluoro-2-oxo-5-phenyl-1,3-dihydro-1,4-benzodiazepin-3-yl]-6,7-dihydro-5H-pyrazolo[5,1-b][1,3]oxazine-3-carboxamide], the EC50 in data set [1] was determined as 31 nM. In data set [2], the CC50 is more than 25000 nM.

As to `C[C@@H]1CCn2nc(-c3ccc4c(cnn4C)c3)c(C(=O)N[C@H]3N=C(c4ccccc4)c4cccc(F)c4NC3=O)c2O1` [Example 83, (5R)-5-Methyl-2-(1-methylindazol-5-yl)-N-[(3S)-9-fluoro-2-oxo-5-phenyl-1,3-dihydro-1,4-benzodiazepin-3-yl]-6,7-dihydro-5H-pyrazolo[5,1-b][1,3]oxazine-3-carboxamide], the EC50 in data set [1] was 115 nM. The half-maximal cytotoxic concentration (CC50) in data set [2] was more than 25000 nM.

Take `CCn1cc(-c2nn3c(c2C(=O)N[C@H]2N=C(c4ccccc4)c4cccc(F)c4NC2=O)O[C@H](C)CC3)cn1` [Example 84, (5R)-2-(1-Ethylpyrazol-4-yl)-N-[(3S)-9-fluoro-2-oxo-5-phenyl-1,3-dihydro-1,4-benzodiazepin-3-yl]-5-methyl-6,7-dihydro-5H-pyrazolo[5,1-b][1,3]oxazine-3-carboxamide]: the EC50 in data set [1] came out at 70 nM. In addition, the CC50 in data set [2] is more than 25000 nM.
